Assay results from patent US9328138B2 (priority 2011, dated 2016).

Columns and labels:
[1] = biological target: HCV NS3 protease genotype 3a (3A-1) (Hepatitis C virus genotype 3a, UniProt Q81258); test: HCV NS3 protease time-resolved fluorescence (TRF) assay, genotype 3a; type: biochemical; details: Ki 3a
Experimental: (§1) The HCV NS3 protease inhibitory activity of the present compounds may be tested using assays known in the art. One such assay is HCV NS3 protease time-resolved fluorescence (TRF) assay as described below and in International Patent Application Publication No. WO2006/102087. Other examples of such assays are described in e.g., International Patent Application Publication No. WO2005/046712. The assay is performed in a final volume of 100 μl in assay buffer containing 50 mM HEPES, pH 7.5, 150 mM NaCl, 15% glycerol, 0.15% Triton X-100, 10 mM DTT, and 0.1% PEG 8000. NS3 protease is pre-incubated with various concentrations of inhibitors in DMSO for 30 minutes. The reaction is initiated by adding the TRF peptide substrate (final concentration 100 nM). NS3 mediated hydrolysis of the substrate is quenched after 1 hour at room temperature with 100 μl of 500 mM MES, pH 5.5. Product fluorescence is detected using either a VICTOR V2 or FUSION fluorophotometer (Perkin Elmer Life and Analytical Sciences) with excitation at 340 nm and emission at 615 nm with a 400 μs delay. Testing concentrations of different enzyme forms are selected to result in a signal to background ratio (S/B) of 10-30. IC50 values are derived using a standard four-parameter fit to the data. K; values are derived from IC50 values using the following formula, IC50=Ki(1+[S]/Km), Eqn (1), where [S] is the concentration of substrate peptide in the reaction and KM is the Michaelis constant. See Gallinari et al., 1999, Biochem. 38:5620-32; Gallinari et al., 1998, J. Virol. 72:6758-69; Taliani et al., 1996, Anal. Biochem. 240:60-67.
(§2) The HCV NS3 protease inhibitory activity was measured using the protease time-resolved fluorescence (TRF) assay as described below and in International Patent Application Publication No. WO 2006/102087. The assay was performed with HCV genotype 1b (BK) NS3 modified enzyme with a R155K mutation and genotype 3a (3A-1).
(§3) The assay was performed in a final volume of 50 μl in assay buffer containing 50 mM HEPES, pH 7.5, 150 mM NaCl, 15% glycerol, 0.15% TRITON X-100, 10 mM DTT, and 0.1% PEG 8000. NS3 and NS4A protease is pre-incubated with various concentrations of inhibitors in DMSO for 10 minutes. The reaction was initiated by adding the TRF peptide substrate (final concentration 25 nM) and NS3 mediated hydrolysis of the substrate proceeds for 6 hours at room temperature. Product fluorescence is detected using an Envision plate reader (Perkin Elmer) with excitation at 340 nm and emission at 615 nm with a 400 μs delay. Testing concentrations of the enzymes were selected to result in a signal to background ratio (S/B) of 5-20. IC50 values are derived using a standard four-parameter fit to the data.
(§4) NS3 and NS4A protease is pre-incubated with various concentrations of inhibitors in DMSO for 30 minutes. The reaction is initiated by adding the TRF peptide substrate (final concentration 100 nM). NS3 mediated hydrolysis of the substrate is quenched after 1 hour at room temperature with 100 μl of 500 mM MES, pH 5.5. Product fluorescence is detected using either a VICTOR V2 or FUSION fluorophotometer (Perkin Elmer Life and Analytical Sciences) with excitation at 340 nm and emission at 615 nm with a 400 μs delay. Testing concentrations of the enzymes are selected to result in a signal to background ratio (S/B) of 8-30. IC50 values are derived using a standard four-parameter fit to the data. Ki values are derived from IC50 values using the following formula, IC50=Ki(1+[S][…]), Eqn (1), where [S] is the concentration of substrate peptide in the reaction and KM is the Michaelis constant. See Gallinari et al., 1999, Biochem. 38:5620-32; Gallinari et al., 1998, J. Virol. 72:6758-69; and Taliani et al., 1996, Anal. Biochem. 240:60-67. ND means not determined.

[2] = biological target: T1, HCV genotype 1b (BK) NS3 modified enzyme with a R155K mutation (Hepatitis C virus genotype 1b, UniProt P26663, R1181K); test: HCV NS3 protease time-resolved fluorescence (TRF) assay, genotype 1b R155K; type: biochemical; details: Ki 1b R155K, genotype 1b (BK) NS3 R155K; single value
T1 construct: HCV genotype 1b (BK) NS3 modified enzyme
Experimental: as §1, §2, §3, §4

SMILES | Ki [1] [nM] | Ki [2] [nM]
C=C[C@@H]1C[C@]1(NC(=O)[C@@H]1C[C@@H]2CN1C(=O)[C@H](C1CCCC1)NC(=O)O[C@@H]1CCC[C@H]1CC/C=C/Cc1c(nc3ccccc3c1OCC)O2)C(=O)NS(=O)(=O)C1CC1 [Example 1, (3aR,7S,10S,12R,21E,24aS)-7-cyclopentyl-N-{(1R,2S)-1-[(cyclopropylsulfonyl)carbamoyl]-2-ethenylcyclopropyl}-19-ethoxy-5,8-dioxo-1,2,3,3a,5,6,7,8,11,12,20,23,24,24a-tetradecahydro-10H-9,12-methanocyclopenta[18,19][1,10,3,6]dioxadiazacyclononadecino[11,12-b]quinoline-10-carboxamide] | 6.1 | 0.25
CCOc1c2c(nc3ccccc13)O[C@@H]1C[C@@H](C(=O)N[C@]3(C(=O)NS(=O)(=O)C4CC4)C[C@H]3CC)N(C1)C(=O)[C@H](C1CCCC1)NC(=O)O[C@@H]1CCC[C@H]1CC/C=C/C2 [Example 2, (3aR,7S,10S,12R,21E,24aS)-7-cyclopentyl-N-{(1R,2R)-1-[(cyclopropylsulfonyl)carbamoyl]-2-ethylcyclopropyl}-19-ethoxy-5,8-dioxo-1,2,3,3a,5,6,7,8,11,12,20,23,24,24a-tetradecahydro-10H-9,12-methanocyclopenta[18,19][1,10,3,6] dioxadiazacyclononadecino[11,12-b] quinoline-10-carboxamide] | 31 | 2.7
C=C[C@@H]1C[C@]1(NC(=O)[C@@H]1C[C@@H]2CN1C(=O)[C@H](C1CCCC1)NC(=O)O[C@@H]1CCC[C@H]1CC/C=C\Cc1c(nc3ccccc3c1OCC)O2)C(=O)NS(=O)(=O)C1CC1 [Example 3, (3aR,7S,10S,12R,21Z,24aS)-7-cyclopentyl-N-{(1R,2S)-1-[(cyclopropylsulfonyl)carbamoyl]-2-ethenylcyclopropyl}-19-ethoxy-5,8-dioxo-1,2,3,3a, 5,6,7,8,11,12,20,23,24,24a-tetradecahydro-10H-9,12-methanocyclopenta[18,19][1,10,3,6] dioxadiazacyclononadecino[11,12-b] quinoline-10-carboxamide] | 35 | 1.4
C=C[C@@H]1C[C@]1(NC(=O)[C@@H]1C[C@@H]2CN1C(=O)[C@H](C1CCCC1)NC(=O)O[C@@H]1CCC[C@H]1CC/C=C/Cc1c(nc3ccccc3c1OC)O2)C(=O)NS(=O)(=O)C1CC1 [Example 4, (3aR,7S,10S,12R,21E,24aS)-7-cyclo pentyl-N-{(1R,2S)-1-[(cyclopropylsulfonyl)carbamoyl]-2-ethenylcyclopropyl}-19-methoxy-5,8-dioxo-1,2,3,3a,5,6,7,8,11,12,20,23,24,24a-tetradeca hydro-10H-9,12-methanocyclopenta[18,19][1,10,3,6] dioxadiazacyclononadecino[11,12-b]quinoline-10-carboxamide] | 3.4 | 0.11
CC[C@@H]1C[C@]1(NC(=O)[C@@H]1C[C@@H]2CN1C(=O)[C@H](C1CCCC1)NC(=O)O[C@@H]1CCC[C@H]1CC/C=C/Cc1c(nc3ccccc3c1OC)O2)C(=O)NS(=O)(=O)C1CC1 [Example 5, (3aR,7S,10S,12R,21E,24aS)-7-cyclopentyl-N-{(1R,2R)-1-[(cyclopropylsulfonyl)carbamoyl]-2-ethylcyclopropyl}-19-methoxy-5,8-dioxo-1,2,3,3a, 5,6,7,8,11,12,20,23,24,24a-tetradecahydro-10H-9,12-methanocyclopenta[18,19][1,10,3,6] dioxadiazacyclononadecino[11,12-b]quinoline-10-carboxamide] | 17 | 0.59
C=C[C@@H]1C[C@]1(NC(=O)[C@@H]1C[C@@H]2CN1C(=O)[C@H](C(C)(C)C)NC(=O)O[C@@H]1CCC[C@H]1CC/C=C/Cc1c(nc3ccccc3c1OC)O2)C(=O)NS(=O)(=O)C1CC1 [Example 6, (3aR,7S,10S,12R,21E,24aS)-7-tert-butyl-N-{(1R,2S)-1-[(cyclopropylsulfonyl)carbamoyl]-2-ethenylcyclopropyl}-19-methoxy-5,8-dioxo-1,2,3,3a,5,6,7,8,11,12,20,23,24,24a-tetradecahydro-10H-9,12-methanocyclopenta[18,19][1,10,3,6] dioxadiazacyclononadecino[11,12-b]quinoline-10-carboxamide] | 1.3 | 0.1
C=C[C@@H]1C[C@]1(NC(=O)[C@@H]1C[C@@H]2CN1C(=O)[C@H](C(C)(C)C)NC(=O)O[C@@H]1CCC[C@H]1CC/C=C\Cc1c(nc3ccccc3c1OC)O2)C(=O)NS(=O)(=O)C1CC1 [Example 7, (3aR,7S,10S,12R,21Z,24aS)-7-tert-butyl-N-{(1R,2S)-1-[(cyclopropylsulfonyl)carbamoyl]-2-ethenylcyclopropyl}-19-methoxy-5,8-dioxo-1,2,3,3a,5,6,7,8,11,12,20,23,24,24a-tetradecahydro-10H-9,12-methanocyclopenta[18,19][1,10,3,6] dioxadiazacyclononadecino[11,12-b]quinoline-10-carboxamide] | 17 | 0.76
C=C[C@@H]1C[C@]1(NC(=O)[C@@H]1C[C@@H]2CN1C(=O)[C@H](C1CCCC1)NC(=O)O[C@@H]1CCC[C@H]1CC/C=C/Cc1c(nc3ccccc3c1OCc1ccccc1)O2)C(=O)NS(=O)(=O)C1CC1 [Example 8, (3aR,7S,10S,12R,21E,24aS)-19-(benzyloxy)-7-cyclopentyl-N-{(1R,2S)-1-[(cyclopropylsulfonyl)carbamoyl]-2-ethenylcyclopropyl}-5,8-dioxo-1,2,3,3a,5,6,7,8,11,12,20,23,24,24a-tetradecahydro-10H-9,12-methanocyclopenta[18,19][1,10,3,6] dioxadiazacyclononadecino[11,12-b]quinoline-10-carboxamide] | 51 | 1.6
C=C[C@@H]1C[C@]1(NC(=O)[C@@H]1C[C@@H]2CN1C(=O)[C@H](C1CCCC1)NC(=O)O[C@@H]1CCC[C@H]1CC/C=C/Cc1c(nc3cc(Cl)ccc3c1OC)O2)C(=O)NS(=O)(=O)C1CC1 [Example 9, (3aR,7S,10S,12R,21E,24aS)-16-chloro-7-cyclopentyl-N-{(1R,2S)-1-[(cyclopropylsulfonyl)carbamoyl]-2-ethenylcyclopropyl}-19-methoxy-5,8-dioxo-1,2,3,3a,5,6,7,8,11,12,20,23,24,24a-tetradecahydro-10H-9,12-methanocyclopenta [18,19][1,10,3,6]dioxadiazacyclononadecino [11,12-b]quinoline-10-carboxamide] | 2.9 | 0.14
C=C[C@@H]1C[C@]1(NC(=O)[C@@H]1C[C@@H]2CN1C(=O)[C@H](C1CCCC1)NC(=O)O[C@@H]1CCC[C@H]1CC/C=C/Cc1c(nc3cccc(Cl)c3c1OC)O2)C(=O)NS(=O)(=O)C1CC1 [Example 10, (3aR,7S,10S,12R,21E,24aS)-18-chloro-7-cyclopentyl-N-{(1R,2S)-1-[(cyclopropylsulfonyl)carbamoyl]-2-ethenylcyclopropyl}-19-methoxy-5,8-dioxo-1,2,3,3a,5,6,7,8,11,12,20,23,24,24a-tetradecahydro-10H-9,12-methanocyclopenta [18,19][1,10,3,6]dioxadiazacyclononadecino [11,12-b]quinoline-10-carboxamide] | 11 | 0.19
